Reference: patent US20120021988A1, “METHODS FOR TREATING IMMUNE THROMBOCYTOPENIA” (priority 2007, published 2012)
“And” between values parts separate entries of the source, which are not always exact repeats. Identical values can stand only once.

Test system: mice having induced ITP
Test: In vivo treatment of ITP induced by rabbit anti-platelet antibody, platelet counting by flow cytometry
Design: species or system CD-1 mice
Conditions: for Platelet counts, individual mice: intraperitoneal, 24 hours, listed as AP; for Platelet counts, mean: 3 mice, ITP alone mean 170.7, Nil 1016
Procedure: Mice: CD-1 mice approximately 6-8 weeks of age were obtained from Charles River (Montreal). The animals were housed 3-5 per cage in filter-topped cages. The temperature and relative humidity were maintained at […] and 35-70%, respectively, and a 12 hour light/dark cycle was used. The mice were fed rodent chow and water ad libitum.
Anti-platelet antibodies to induce ITP: A rabbit anti-platelet antibody (Inter-Cell Technologies, Inc., Jupiter, Fla.; Cat. No. A31440) was used to induce ITP. Each mouse received 10 μl antibody-containing serum, diluted with 190 μl PBS for injection, such that the final injection volume was 200 μl for all groups injected with anti-platelet antibody.
On the day of use, one vial of rabbit anti-platelet antibody was removed from the freezer, placed in a 22° C. water bath, and shaken. The tube was checked every 30 seconds, and when it was completely thawed it was placed in a microcentrifuge and centrifuged at 10,000×g (11,000 rpm) for 10 minutes at 4° C. The supernatant fluid was transferred to a new tube and the pellet was discarded. The supernatant was placed on ice until used or diluted, as appropriate. Unused portions of the sera were discarded.
Therapeutic treatment of ITP: IVIg was used as a standard control treatment for the ITP induced by the rabbit anti-platelet antibody. The IVIg was Gamimmune® N, 10%. Treatment with IVIg consisted of an intraperitoneal injection of 50 mg (500 μl) IVIg, a dose that was equivalent to a dose of 2,000 mg/kg body weight.
Platelet enumeration: All mice were bled via the saphenous vein. 50 μL of blood were collected into 450 μL PBS/1% EDTA. The blood was further diluted in PBS/1% EDTA. Platelets were enumerated by flow cytometry with a Guava microcapillary cytometer (Guava EasyCyteMini, Guava Technologies, Inc., Hayward, Calif.), using forward scatter (FSC) versus side scatter (SSC) to gate platelets.
Peptides used to inhibit ITP: Peptides having the amino acid sequences set forth in SEQ ID NO:2 ([…]), SEQ ID NO:20 ([…]), and a control peptide in which Trp7, Val13 and Trp14 of SEQ ID NO:20 were replaced by alanines ([…]; SEQ ID NO:57) were tested for their ability to inhibit ITP. Alanine substation of Val13 and Trp14 causes a decrease in binding affinity (measured by ΔΔG, where G=Gibbs Energy) of greater than 1,000 fold.
Peptides were stored at −20° C. until the day of use. On the day of use, peptides were removed from the freezer, placed in a 22° C. water bath, shaken, and checked every 30 seconds for thawing. When thawed, the peptides were placed on ice until use. For samples that received a 10× dose of peptide, the following were sequentially added to a 1.5 ml polypropylene Eppendorf tube: 623 μl PBS (pH 7.22), 35 μL rabbit anti-plaletet IgG, and 42 μl peptide, with mixing after each addition. For samples having a 100× dose of peptide, the following were added sequentially to a 1.5 ml polypropylene Eppendorf tube: 245 μl PBS (pH 7.22), 35 μL rabbit anti-plaletet IgG, and 420 μl peptide, with mixing after each addition. The peptides were incubated for at least 30 minutes at 22° C. prior to injection into mice. (A 15 minute incubation in the laboratory, transport of the mixtures to the Vivarium, and injection took roughly an additional 30 minutes.)
The final volume of each peptide mixture was 700 μL, which was sufficient for injection of 3 mice (200 μl/mouse, plus 100 μl to cover dead volume). For the 10× dose/mouse of peptide, 12 μg of peptide (12 μl of 1 mg/ml solution) was mixed with 100 μg of the rabbit anti-platelet IgG (10 μl of 10 mg/ml solution). The volume of 700 μl was about 3.5× the volume injected per mouse (200 μl). To obtain the dose of peptide and rabbit IgG for the 700 μl final volume, dose of peptide or Rabbit IgG per mouse was multiplied by 3.5 (e.g., 12 μl peptide/mouse×3.5=42 μl, 10 μl Rabbit IgG/mouse×3.5=35 μl). PBS (623 μl, pH 7.22) was added to make up the final volume 700 μl. […]

[1] = ITP + 10X molar amount of peptide
[2] = ITP + 100X molar amount of peptide

## Ala-Pro-Pro-Asp-Cys-Ala-Trp-His-Leu-Gly-Glu-Leu-Val-Trp-Cys-Thr (APPDCAWHLGELVWCT) [SEQ ID NO:20]
[1]
  Platelet counts, individual mice: 2.03e+11 L⁻¹ and 2.61e+11 L⁻¹ and 1.97e+11 L⁻¹
  Platelet counts, mean: 2.203e+11 L⁻¹
[2]
  Platelet counts, individual mice: 7.59e+11 L⁻¹ and 6.42e+11 L⁻¹ and 4.33e+11 L⁻¹
  Platelet counts, mean: 6.113e+11 L⁻¹
First experiment, 100× molar
  Effect on induced ITP, 100× versus 10×: greater effect than 10× Peptide AP
First experiment, Table 4, 10× and 100× molar
  Effect on induced ITP: ameliorated induced ITP
Second experiment, FIG. 1, 10× molar and 100× molar, 24 hours after treatment
  Amelioration of induced ITP/AITP compared with IVIg: ameliorated the induced ITP/AITP better than the currently accepted treatment for ITP (IVIg)
